Results taken from BindingDB's records for doi:10.1021/jm300752n (Emory University, 2012).

Assay: Inhibition of P300 CH1 domain-mediated HIF1 transcriptional activity in human LN229-V6R cells assessed as reduction in luciferase activity incubated for 1 hr under normoxia followed by 24 hrs under hypoxia by reporter gene assay

IC50 | Compound
5 µM | CC(C)CN(Cc1ccc2c(c1)C=CC(C)(C)O2)S(=O)(=O)c1nccs1
5 µM | CC(C)CN(Cc1ccc2c(c1)C=CC(C)(C)O2)S(=O)(=O)c1nccn1C
5 µM | COc1cc(CN(C(C)C)S(=O)(=O)c2ccccn2)cc2c1OC(C)(C)C=C2
5 µM | CC(C)CN(Cc1ccc2c(c1)C=CC(C)(C)O2)S(=O)(=O)c1ccccn1
